Laboratory results as given in patent US6653338B2 (Applied Research Systems ARS Holding N.A., priority 1998, dated 2003).

Legend:
[1] = target: T1, recombinant FSH receptor stably transfected and expressed in Chinese Hamster Ovary cells (Homo sapiens, UniProt P23945); assay: FSH assay: CHO luciferase FSHR (CRE-luciferase reporter, LDR curves); type: cell-based; conditions: FIG. 6, from the graph; duplicate samples; luciferase luminescence in CHO FSHR cells
T1 construct: expressed in transfected cells; host or cells: Chinese Hamster Ovary (CHO) cells, stably transfected, with CRE-luciferase reporter
T1 sequence (P23945 18-695): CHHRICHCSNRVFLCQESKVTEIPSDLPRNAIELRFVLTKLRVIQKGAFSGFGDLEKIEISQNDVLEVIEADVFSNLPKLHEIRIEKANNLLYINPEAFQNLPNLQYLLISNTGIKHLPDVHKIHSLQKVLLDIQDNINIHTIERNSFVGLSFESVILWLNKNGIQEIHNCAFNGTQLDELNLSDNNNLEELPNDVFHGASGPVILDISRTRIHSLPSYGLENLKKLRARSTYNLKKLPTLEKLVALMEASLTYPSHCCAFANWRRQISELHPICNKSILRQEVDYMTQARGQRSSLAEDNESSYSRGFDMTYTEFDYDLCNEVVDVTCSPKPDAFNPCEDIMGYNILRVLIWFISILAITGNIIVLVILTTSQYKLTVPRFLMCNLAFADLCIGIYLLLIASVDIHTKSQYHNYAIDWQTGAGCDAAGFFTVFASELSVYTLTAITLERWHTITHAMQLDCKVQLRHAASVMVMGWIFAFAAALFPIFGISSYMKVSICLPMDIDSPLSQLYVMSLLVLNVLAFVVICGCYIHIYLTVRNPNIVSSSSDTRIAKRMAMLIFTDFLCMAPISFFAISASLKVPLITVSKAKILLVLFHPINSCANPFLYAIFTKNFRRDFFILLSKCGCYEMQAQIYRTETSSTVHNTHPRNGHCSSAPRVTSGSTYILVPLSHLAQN
Excerpt: Compounds were screened for agonist activity at the FSH receptor using the recombinant FSH receptor stably transfected and expressed in Chinese Hamster Ovary cells (CHO cells) essentially as described in the work by Kelton, et al. (Molecular and Cellular Endocrinology, 1992, 89, 141-151). […] An agonist at the FSH receptor increases cAMP in the cell, which results in activation of CREB (cAMP response element binding protein). This molecule interacts with the CRE element upstream of the gene and results in increased transcription of the genes downstream of the element. The substrate for luciferase (Packard Instrument Company, Meriden, Conn., U.S.A.) was added to the cells after appropriate incubation with the compounds of the invention or FSH (used as a positive control). The amount of luciferase expressed was measured by quantitating the luminescence produced by the enzyme using a TopCount scintillation/luminescence counter running in single photon counting mode. A compound that acts as an agonist at the receptor should produce light from the treated cells in proportion to its concentration within the incubation. Luminescence should be saturable at high concentrations of the compound.
The compounds of the invention, in deepwell plates (Master plates) were loaded on the robotic deck along with the appropriate number of assay plates and daughter plates. A 10 μl aliquot from each master plate was transferred to the corresponding daughter plate and 90 μl of DME/F12 was added and mixed within each well. 20 μl was then removed from the daughter plate and dispensed into the assay plate. […] 100 μl of Luclite (prepared as described by the manufacturer) was added to each well and the plate was shaken gently for 40 s prior to placement in the Topcount plate reader. After allowing 3.5 min for the plate to dark-adapt within the machine, the amount of luminescence generated was quantitated using Single Photon Counting mode. […]

[2] = system: primary rat granulosa cells; assay: primary rat granulosa cell bioassay (estradiol production by RIA); type: cell-based; conditions: FIG. 7; for estradiol production versus dose: concentrations between 200 nM and 5 μM, decrease in production above this concentration; for EC50: Rattus norvegicus, estradiol in cell supernatants by RIA, read-out: EC50 of stimulated estradiol production
Procedure: In this in vitro assay, conversion of androstendione to estrogen by granulosa cells in the presence of FSH was measured for compounds XVI and XVII. For comparison, FSH was also tested in the assay.
Cells were plated at 5000, 8000, 10,000 and 20,000 cells/ well/ 200 μl of GAB medium on poly-D-lysine-coated 96-well tissue culture plates. Plates were incubated at 37° C. in a 5% CO2/95% air incubator for 3 days. Cultures were washed prior to stimulation with FSH or LH. 50 μl of 4 X concentrations of rhFSH, rhLH or forskolin was added to the cultures. To define the range of the dose response curve the rhFSH was diluted so that the final concentration on the cells was between 10^−7 to 10^−15 M with three doses per log at 1, 2 and 5. Forskolin was diluted so that the final concentration on the cells was 1 μM. Cells were incubated @ 37° C. in 5% CO2. Three days later, cell supernatants were collected and diluted 1:100 in GAB medium for measurement of estradiol by RIA. The RIA was performed according to manufacturer's directions except that an estradiol standard was prepared in absolute ethanol at 100 ng/mL and then further diluted in GAB medium, instead of kit buffer. The concentration of hormone was plotted on the X-axis against the amount of estradiol produced by the cells on the Y-axis using Origin graphics software.
Results of the assay using media only are also shown.

| SMILES | EC50 [1] | estradiol production versus dose [2] | EC50 [2] |
| --- | --- | --- | --- |
| CCCCCc1ccc(C(=O)N2CC(O)CC2C(=O)Nc2ccc3c(c2)c2ccccc2n3CC)c(=O)o1 (stereo not shown) [compound XIX, 1-[(2-Oxo-6-pentyl-2H-pyran)-3-carbonyl]-4-hydroxypyrrolidine2-carboxylic acid-3-(9-ethylcarbazolyl)amide] | 1120 nM | – | – |
| CCCCCc1ccc(C(=O)N2CCCC2C(=O)Nc2ccc3c(c2)c2ccccc2n3CC)c(=O)o1 (stereo not shown) [compound XVI, 1-[(2-Oxo-6-pentyl-2H-pyran)-3-carbonyl]pyrrolidine-2-carboxylic acid-3-(9-ethylcarbazolyl)amide] | 38.8 nM | increasing estradiol production with increasing dose | 1400 nM |
| CCCCCc1ccc(C(=O)N2CCCCC2C(=O)Nc2ccc3c(c2)c2ccccc2n3CC)c(=O)o1 (stereo not shown) [compound XVII, 1-[(2-Oxo-6-pentyl-2H-pyran)-3-carbonyl]piperidine-2-carboxylic acid-3-(9-ethylcarbazolyl)amide] | 3.9 nM | increasing estradiol production with increasing dose | 1200 nM |
